One compound from patent publication US10577322B2, “5-methoxytryptophan and its derivatives and uses thereof” (National Health Research Institutes, priority 2015, dated 2020) can be followed below.

For assay [1], the system named is COX-2. The assay can be described thus: LPS-induced COX-2 protein expression in RAW264.7 cells (immunoblot). It is filed as cell-based, mouse. The settings on record: LPS 8 h. Here is the method: Mouse RAW264.7 macrophages were from the American Type Culture Collection and cultured in DMEM containing 10% FBS. […] The duration of LPS (100 ng/ml) treatment varied depending on the experiment.
(§1) Cellular protein were resolved by 5% to 20% SDS-PAGE and transferred to nitrocellulose membranes and blotted with specific antibodies as previously described (Lee, G. L., et al.).
After pretreating mouse macrophage RAW264.7 cells with different concentrations of 5-MTP for 30 min, cells were stimulated with LPS for 8 h. Cell lysates were immunoblotted with antibodies for COX-2 or β-actin. In addition, RAW264.7 cells were transfected with COX-2 promoter-luciferase plasmid. After 24 h transfection, the cells were incubated with LPS for 8 h. Luciferase activity was measured.

The next assay deals with NF-κB p65. Kind of assay: Phospho-p65 level in lung tissues (ELISA kit). It is filed as in vivo, mice. Conditions: 4 and 8 h after LPS, 5-MTP 23.4 mg/kg. Here is the method: Since NF-κB activation plays a critical role in the initiation and progression of systemic inflammation and septic pathology, the effect of 5-MTP on NF-κB activation in lung tissue was evaluated. Phospho-p65 level in lung tissues was determined by an ELISA kit at 4 and 8 h after LPS infusion with or without 5-MTP (23.4 mg/kg) (n=6 mice/group).
(In an ELISA, binding on a coated surface is turned into a signal by an enzyme label.)

The test system of the next assay is ligated carotid arteries. The assay can be described thus: Neointima formation model of carotid artery ligation. It is filed as in vivo, mice. Conditions: 100 mg/kg IP 3 times a week, four weeks after ligation. Here is the method:
Approximately 12-week-old male C57BL/6 wild-type mice ational Laboratory Animal Center, Taiwan) were subjected to a neointima formation model by ligating the left common carotid artery (LCCA). The Institutional. Animal Care and Use Committee of National Health Research Institutes, Taiwan approved all experimental procedures (#NHRI-IACUC-101144-A). Mice were anesthetized with tribromoethanol solution at a dose of 250 mg/kg by IP injection. After assessing the level of anesthesia by checking the pedal reflex, the LCCA was exposed through a midline incision in the neck. […] Following surgery, mice were treated with vehicle (PBS) or 100 mg/kg of 5-MTP (Sigma, M4001) by IP injection 3 times a week. 5-MTP was dissolved in 0.05 N HCl (made in PBS) first, pH adjusted to 7.4 by NaOH, and then a stock solution of 6.5 mg/mL was prepared with PBS. The stock solution was then sterilized by filtering through a 0.22 μm-filter before use. At indicated time points (4, 7, and 28 d after surgery), mice were anesthetized with tribromoethanol solution (500-750 mg/kg), perfused with saline, followed by 10% neutral-buffered-formalin. The contralateral control (right common carotid artery) and ligated LCCA were then carefully dissected, excised, and immersed in 10% formalin before processing and embedding in paraffin. […]

Another assay has as its system NF-κB. Kind of assay: NF-κB promoter-luciferase assay in RAW264.7 cells. It is filed as cell-based, mouse. The settings on record: LPS 8 h. Here is the method: RAW264.7 macrophages were cotransfected with COX-2 promoter-luciferase, IL-6 promoter-luciferase constructs as previously described (Lee, G. L., et al.) or p5xNF-κB-luciferase (Stratagene) and pcDNA3.1-β-galactosidase plasmids using FuGENE 6 (Roche). After overnight transfection, the cells were incubated with or without LPS in the presence or absence of 5-MTP for 8 h. After treatment, cells were lysed, and luciferase activity was measured using an assay kit (Promega). β-galactosidase activity was used to normalize the data.
After pretreating RAW264.7 cells with different concentrations of 5-MTP for 30 min, cells were stimulated with LPS for 8 h. NF-κB promoter activity as measured by NF-κB promoter-luciferase assay.

Assay [2] deals with COX-2. The assay can be described thus: COX-2 immunohistochemistry in lung tissues of LPS-treated mice. It is filed as in vivo. Conditions: LPS 60 mg/kg; 12 h, 16 h and 24 h. Here is the method:
Prior to immunohistochemical detection of COX-2, iNOS, Ly6g, or cleaved caspase-3 in lung sections, sections were deparaffinized with xylene, progressively rehydrated through graded alcohols. Antigen sites were retrieved by heating the sections on slides in pH 8 EDTA antigen. retrieval (Trilogy; Cell Marque Corporation) in electric pressure cooker for 15 min. […] All antibodies described hereafter were diluted in blocking buffer. Sections were incubated at room temperature for 2 h with primary antibody and then washed in PBST. The sections were incubated with primary antibody amplifier quanta (Thermo) for 10 minutes. After rinsing with PBST, the sections were incubated with HRP Polymer Quanto (Thermo) for 10 minutes and washed three times with PBST. COX-2, iNOS, Ly6g and cleaved caspase-3 were visualized by the addition of DAB Quanto Chromogen: Substrate for 3 minutes. Tissues were also counterstained with hematoxylin.
Moreover, paraffin-embedded sections were prepared from lungs of mice injected with 60 mg/kg LPS with or without saline or 5-MTP at 12 h, 16 h and 24 h. COX-2 and inducible nitric oxide synthase (iNOS) protein levels in lung tissues were determined by immunohistochemistry by staining with anti-COX-2 and anti-iNOS antibodies, respectively. The results are shown in FIGS. 6A-6B, in which scale bars represent 100 μm. […]

In the next assay the test system is ERK½. The assay can be described thus: LPS-induced ERK½ phosphorylation in RAW264.7 cells (immunoblot). It is filed as cell-based, mouse. Conditions: LPS 4 h. As for the experimental part:
as §1
After pretreating RAW264.7 cells with different concentrations of 5-MTP for 30 min, cells were stimulated with LPS for 4 h. Cell lysates were immunoblotted with antibodies for p38, phospho-p38 (p-p38), ERK½, phospho-ERK½ (p-ERK½) or β-actin. […] Activation of p38 MAPK in macrophages is required for TLR-induced NF-κB activation, which is one of the key factors affecting TLR-induced cytokine production. Thus, we evaluated the effect of 5-MTP on LPS-induced. NF-κB activation.

In a further assay the test system is peritoneal macrophages. Kind of assay: Ex vivo cytokine production of peritoneal macrophages from endotoxemic mice. It is filed as in vivo. Conditions: macrophages isolated 8 h after LPS, 5-MTP 23.4 mg/kg, cultured 24 h. Here is the method:
To further confirm that 5-MTP deactivates peritoneal macrophages during endotoxemia, we evaluated the effect of 5-MTP on IL-1β and IL-6 production ex vivo in peritoneal macrophages isolated from untreated or 5-MTP-treated endotoxemic mice. Peritoneal macrophages were isolated 8 h after LPS injection with saline or 5-MTP (23.4 mg/kg) and cultured with medium alone. After 24 h, proinflammatory cytokines were measured by ELISA (n=3).

On to `COc1ccc2[nH]cc(C[C@H](N)C(=O)O)c2c1` [5-MTP, 5-methoxytryptophan], for which the “LPS-induced COX-2 protein expression” value in the assay on COX-2 [1] is on record as “blocked”. Besides, the “phosphorylation level of NF-κB p65 in lung tissues” value in the assay on NF-κB p65 is “reduced by 5-MTP”. For the same compound, in the assay with ligated carotid arteries, the intima/media area ratio was found to be 0.58±0.11 and the intimal thickening entry is listed as “reduced”. The “NF-κB promoter activity (transactivation)” value in the assay on NF-κB is reported as “suppressed NF-κB transactivation in a concentration-dependent manner”. Further, the “COX-2 expression in lung tissues” value with COX-2 [2] is on record as “suppresses”. In addition, in the assay on ERK½, the “phosphorylation of ERK½” value is reported as “but not that of ERK½”. Also, in the assay with peritoneal macrophages, the “ex vivo IL-1β production” value is recorded as “significantly suppressed” and the “ex vivo IL-6 production” value is listed as “significantly suppressed”.
